According to the NIST ThermoML archive (doi:10.1021/je049874h):
± gives the expanded uncertainty stated by the source.

Conditions: Liquid

| vapor or sublimation pressure (263.15 K) [kPa] | vapor or sublimation pressure (278.15 K) [kPa] | vapor or sublimation pressure (293.15 K) [kPa] | Compound |
| --- | --- | --- | --- |
| 69.6 ± 2 | 125.1 ± 2 | 209.4 ± 2.1 | CCCC [butane] |
| 580.2 ± 2.8 | 949.6 ± 3.6 | 1473.2 ± 4.8 | FCF [difluoromethane] |
